Assay results taken from patent publication US20090062251A1, “Novel Compounds 002” (ASTRAZENECA AB, priority 2007, published 2009).

Target: T1, Human CB1 receptor (hCB1) (Homo sapiens, UniProt P21554)
T1 construct: purchased Receptor Biology
Test: hCB1 GTPγS binding
Format: biochemical
Conditions: for EC50: hCB1 membranes, GTPγ35S, 10-point dose-response; for Emax / hCB1 EMax: maximal stimulated binding determined with 10 μM Win 55,212-2
Experimental: hCB1 and hCB2 GTPγS Binding
Human CB1 receptor from Receptor Biology (hCB1) or human CB2 receptor membranes (BioSignal) are thawed at 37° C., passed 3 times through a 25-gauge blunt-end needle and diluted in the GTPγS binding buffer (50 mM Hepes, 20 mM NaOH, 100 mM NaCl, 1 mM EDTA, 5 mM MgCl2, pH 7.4, 0.1% BSA). […] The basal and maximal stimulated binding is determined in absence and presence of 1 μM (hCB2) or 10 μM (hCB1) Win 55, 212-2 respectively. The membranes are pre-incubated for 5 minutes with 56.25 μM (hCB2) or 112.5 μM (hCB1) GDP prior to distribution in plates (15 μM (hCB2) or 30 μM (hCB1) GDP final). The plates are vortexed and incubated for 60 minutes at room temperature, filtered on Unifilters GF/B (presoaked in water) with the Tomtec or Packard harvester using 3 ml of wash buffer (50 mM Tris, 5 mM MgCl2, 50 mM NaCl, pH 7.0). The filters are dried for 1 hour at 55° C. The radioactivity (cpm) is counted in a TopCount (Packard) after adding 65 μl/well of MS-20 scintillation liquid. Antagonist reversal studies are done in the same way except that (a) an agonist dose-response curve is done in the presence of a constant concentration of antagonist, or (b) an antagonist dose-response curve is done in the presence of a constant concentration of agonist.

T1 sequence (P21554 whole entry): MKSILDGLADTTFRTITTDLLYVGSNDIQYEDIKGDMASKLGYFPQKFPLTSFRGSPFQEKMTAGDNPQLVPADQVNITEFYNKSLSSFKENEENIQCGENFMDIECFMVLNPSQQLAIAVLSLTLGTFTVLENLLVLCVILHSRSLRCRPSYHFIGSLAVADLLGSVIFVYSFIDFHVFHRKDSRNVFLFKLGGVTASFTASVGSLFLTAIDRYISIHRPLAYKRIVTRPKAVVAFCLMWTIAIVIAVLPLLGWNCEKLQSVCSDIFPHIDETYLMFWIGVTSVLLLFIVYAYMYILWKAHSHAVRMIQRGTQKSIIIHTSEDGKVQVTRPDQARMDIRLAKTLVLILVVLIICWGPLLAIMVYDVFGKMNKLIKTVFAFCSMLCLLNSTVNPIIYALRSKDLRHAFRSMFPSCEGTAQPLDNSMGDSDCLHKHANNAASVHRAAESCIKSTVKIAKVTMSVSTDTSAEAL

Row | SMILES | EC50 [nM] | Emax [%] | hCB1 EMax [%]
1 | CCNC(=O)CN(CC)C(=O)c1ccc2c(c1)c1c(n2CC(=O)N(CC)CC)CCC(C2CCOCC2)C1 (stereo not shown) [9-(diethylcarbamoylmethyl)-N-ethyl-N-(ethylcarbamoylmethyl)-6-(oxan-4-yl)-5,6,7,8-tetrahydrocarbazole-3-carboxamide] | > 10000 | > 87 | –
2 | CCS(=O)(=O)n1c2c(c3cc(C(=O)N4CCC[C@@H]4C(=O)NCCF)ccc31)CC(C1CCOCC1)CC2 (stereo partly drawn) [(2R)-1-[9-ethylsulfonyl-6-(oxan-4-yl)5,6,7,8-tetrahydrocarbazole-3-carbonyl]-N-(2-fluoroethyl)pyrrolidine-2-carboxamide] | 1700 | > 107 | –
3 | Cn1c2c(c3cc(C(=O)N4CCC[C@H](C(=O)NC5CC5)C4)ccc31)CC(C1CCOCC1)CC2 (stereo partly drawn) [(3S)—N-cyclopropyl-1-[9-methyl-6-(oxan-4-yl)5,6,7,8-tetrahydrocarbazole-3-carbonyl]piperidine-3-carboxamide] | – | 118 | –
4 | Cn1c2c(c3cc(C(=O)N4CC[C@H](C(=O)NC5CC5)C4)ccc31)CC(C1CCOCC1)CC2 (stereo partly drawn) [(3S)—N-cyclopropyl-1-[9-methyl-6-(oxan-4-yl)5,6,7,8-tetrahydrocarbazole-3-carbonyl]pyrrolidine-3-carboxamide] | – | 134 | –
5 | CN(CCCC(=O)Nn1cccc1)C(=O)c1ccc2c(c1)c1c(n2C)CC[C@@H](C2CCOCC2)C1 [(R)—N-(4-(1H-Pyrrol-1-ylamino)-4-oxobutyl)-N,9-dimethyl-3-(tetrahydro-2H-pyran-4-yl)-2,3,4,9-tetrahydro-1H-carbazole-6-carboxamide] | 1050 | 89 | –
6 | CN(C)NC(=O)CCCN(C)C(=O)c1ccc2c(c1)c1c(n2C)CC[C@@H](C2CCOCC2)C1 [(R)—N-(4-(2,2-Dimethylhydrazinyl)-4-oxobutyl)-N,9-dimethyl-3-(tetrahydro-2H-pyran-4-yl)-2,3,4,9-tetrahydro-1H-carbazole-6-carboxamide] | 917 | 96 | –
7 | COCCNC(=O)CCCN(C)C(=O)c1ccc2c(c1)c1c(n2C)CC[C@@H](C2CCOCC2)C1 [(R)—N-(4-(2-Methoxyethylamino)-4-oxobutyl)-N,9-dimethyl-3-(tetrahydro-2H-pyran-4-yl)-2,3,4,9-tetrahydro-1H-carbazole-6-carboxamide] | 1210 | 93 | –
8 | CN(CCCC(=O)NCC#N)C(=O)c1ccc2c(c1)c1c(n2C)CC[C@@H](C2CCOCC2)C1 [(R)—N-(4-(Cyanomethylamino)-4-oxobutyl)-N,9-dimethyl-3-(tetrahydro-2H-pyran-4-yl)-2,3,4,9-tetrahydro-1H-carbazole-6-carboxamide] | 71 | 110 | –
9 | CONC(=O)CCCN(C)C(=O)c1ccc2c(c1)c1c(n2C)CC[C@@H](C2CCOCC2)C1 [(R)—N-(4-(Methoxyamino)-4-oxobutyl)-N,9-dimethyl-3-(tetrahydro-2H-pyran-4-yl)-2,3,4,9-tetrahydro-1H-carbazole-6-carboxamide] | 291 | 104 | –
10 | CC(C)NC(=O)CC[C@@H](CO)N(C)C(=O)c1ccc2c(c1)c1c(n2C)CC[C@@H](C2CCOCC2)C1 [(R)—N-((S)-1-Hydroxy-5-(isopropylamino)-5-oxopentan-2-yl)-N,9-dimethyl-3-(tetrahydro-2H-pyran-4-yl)-2,3,4,9-tetrahydro-1H-carbazole-6-carboxamide] | 133 | 129 | –
11 | CNC(=O)CC[C@@H](CO)N(C)C(=O)c1ccc2c(c1)c1c(n2C)CC[C@@H](C2CCOCC2)C1 [(R)—N-((S)-1-Hydroxy-5-(methylamino)-5-oxopentan-2-yl)-N,9-dimethyl-3-(tetrahydro-2H-pyran-4-yl)-2,3,4,9-tetrahydro-1H-carbazole-6-carboxamide] | 101 | 124 | –
12 | CN(C(=O)c1ccc2c(c1)c1c(n2C)CC[C@@H](C2CCOCC2)C1)[C@H](CO)CCC(=O)NC1COC1 [(R)—N-((S)-1-Hydroxy-5-(oxetan-3-ylamino)-5-oxopentan-2-yl)-N,9-dimethyl-3-(tetrahydro-2H-pyran-4-yl)-2,3,4,9-tetrahydro-1H-carbazole-6-carboxamide] | 201 | 119 | –
13 | CN(C(=O)c1ccc2c(c1)c1c(n2C)CC[C@@H](C2CCOCC2)C1)[C@H](CO)CCC(=O)NCC(F)F [(R)—N-((S)-5-(2,2-Difluoroethylamino)-1-hydroxy-5-oxopentan-2-yl)-N,9-dimethyl-3-(tetrahydro-2H-pyran-4-yl)-2,3,4,9-tetrahydro-1H-carbazole-6-carboxamide] | 107 | 120 | –
14 | CCN(CCCC(=O)NCCO)C(=O)c1ccc2c(c1)c1c(n2C)CC[C@@H](C2CCOCC2)C1 [(R)—N-Ethyl-N-(4-(2-hydroxyethylamino)-4-oxobutyl)-9-methyl-3-(tetrahydro-2H-pyran-4-yl)-2,3,4,9-tetrahydro-1H-carbazole-6-carboxamide] | 31 | 113 | –
15 | CNC(=O)CCCN(C)C(=O)c1ccc2c(c1)c1c(n2C)CCC(C2CCOCC2)C1 (stereo not shown) [N,9-dimethyl-N-[3-(methylcarbamoyl)propyl]-6-(oxan-4-yl)-5,6,7,8-tetrahydrocarbazole-3-carboxamide] | – | 102 | –
16 | CN(CC(=O)NC1CC1)C(=O)c1ccc2c(c1)c1c(n2C)CCC(C2CCOCC2)C1 (stereo not shown) [N-(cyclopropylcarbamoylmethyl)-N,9-dimethyl-6-(oxan-4-yl)-5,6,7,8-tetrahydrocarbazole-3-carboxamide] | – | 121 | 121
17 | CCN(CC(=O)NC1CC1)C(=O)c1ccc2c(c1)c1c(n2C)CCC(C2CCOCC2)C1 (stereo not shown) [N-(cyclopropylcarbamoylmethyl)-N-ethyl-9-methyl-6-(oxan-4-yl)-5,6,7,8-tetrahydrocarbazole-3-carboxamide] | – | 124 | –
18 | CN(CCCC(=O)NCCF)C(=O)c1ccc2c(c1)c1c(n2C)CCC(C2CCOCC2)C1 (stereo not shown) [N-[3-(2-fluoroethylcarbamoyl)propyl]-N,9-dimethyl-6-(oxan-4-yl)-5,6,7,8-tetrahydrocarbazole-3-carboxamide] | – | 121 | –
19 | Cn1c2c(c3cc(C(=O)N4CC[C@H](NC(=O)C5CC5)C4)ccc31)CC(C1CCOCC1)CC2 (stereo partly drawn) [N-[(3S)-1-[9-methyl-6-(oxan-4-yl)5,6,7,8-tetrahydrocarbazole-3-carbonyl]pyrrolidin-3-yl]cyclopropanecarboxamide] | 1150 | 116 | –
20 | CCN(CC(=O)NCCO)C(=O)c1ccc2c(c1)c1c(n2S(=O)(=O)CC)CCC(C2CCOCC2)C1 (stereo not shown) [N-ethyl-9-ethylsulfonyl-N-(2-hydroxyethylcarbamoylmethyl)-6-(oxan-4-yl)-5,6,7,8-tetrahydrocarbazole-3-carboxamide] | – | 111 | 111
21 | CCN(CC(=O)NC1CCOCC1)C(=O)c1ccc2c(c1)c1c(n2C)CCC(C2CCOCC2)C1 (stereo not shown) [N-ethyl-9-methyl-6-(oxan-4-yl)-N-(oxan-4-ylcarbamoylmethyl)-5,6,7,8-tetrahydrocarbazole-3-carboxamide] | > 1110 | > 88 | –
22 | CCN(CC(=O)NCCF)C(=O)c1ccc2c(c1)c1c(n2C)CCC(C2CCOCC2)C1 (stereo not shown) [N-ethyl-N-(2-fluoroethylcarbamoylmethyl)-9-methyl-6-(oxan-4-yl)-5,6,7,8-tetrahydrocarbazole-3-carboxamide] | – | 108 | –
23 | CCNC(=O)CN(CC)C(=O)c1ccc2c(c1)c1c(n2CC(C)(C)O)CCC(C2CCOCC2)C1 (stereo not shown) [N-ethyl-N-(ethylcarbamoylmethyl)-9-(2-hydroxy-2-methyl-propyl)-6-(oxan-4-yl)-5,6,7,8-tetrahydrocarbazole-3-carboxamide] | > 30000 | > 34 | –
